Test results reported in patent US9617219B2, “Polymorphs of 3-difluoromethyl-1-methyl-1 H-pyrazole-4-carboxylic acid (9-dichloro-methylene-1,2,3,4-tetrahydro-1,4-methano-naphthalen-5-yl)-amide” (Syngenta Participations AG, priority 2014, dated 2017).

Experiments:
[1] = Competitive slurries of anhydrous Form 1 and hydrate in water/methanol mixtures, stable form determined by DSC; format: physicochemical; parameters: key to stable crystal form: A indicates the anhydrous form is the stable form; H indicates the hydrate is the stable form; U data was inconclusive
Method: DSC was carried out using a Mettler Toledo DSC 820 or DSC1. A sample loading of around 5 mg was used and this was heated from 40° C. to 250° C. at a rate of 10° C./minute on the DSC820 or from 25° C. to 250° C. at a rate of 10° C./minute on the DSC1. The lid of the DSC crucible was pierced to allow the escape of any gas formed during the heating of the sample. The thermodynamic stability of hydrated crystals depends not only on temperature but also on the abundance of water, or more precisely, the water activity (aw), which is equivalent to the relative humidity. In order to determine under which conditions the anhydrous polymorph Form 1 and the hydrate are stable, a series of competitive slurries containing both crystal forms were prepared in different water/methanol mixtures and at a range of temperatures. The resulting crystals were analysed by DSC to determine the stable form under the given conditions. […] From the data above, the water/methanol compositions were converted into water activities and a phase diagram was constructed.

[2] = Stability of suspension concentrate formulation of anhydrous Form 1 contaminated with 5% hydrated form, temperature cycling; format: physicochemical; conditions: SC of anhydrous Form 1 with 5% hydrated form, cycling 0° C. to 40° C. over 12 hours, after two weeks
Method: Two standard suspension concentrate (SC) formulations were separately prepared using the anhydrous Form 1 polymorph and the hydrated polymorph. The SC of the anhydrous Form 1 was contaminated with 5% of the hydrated form and placed in a temperature cycling oven varying from 0° C. to 40° C. over 12 hours. After two weeks, the sample was inspected. […] Some crystals were removed from the formulation and dried.

SMILES: Cn1cc(C(=O)Nc2cccc3c2C2CCC3C2=C(Cl)Cl)c(C(F)F)n1 (racemic) [compound of formula (I), 3-difluoromethyl-1-methyl-1H-pyrazole-4-carboxylic acid (9-dichloromethylene-1,2,3,4-tetrahydro-1,4-methano-naphthalen-5-yl)-amide]
- stable crystal form ([1]; 1% water in methanol, 5 °C): A
- stable crystal form ([1]; 1% water in methanol, 20 °C): A
- stable crystal form ([1]; 1% water in methanol, 35 °C): A
- stable crystal form ([1]; 1% water in methanol, 40 °C): A
- stable crystal form ([1]; 1% water in methanol, 45 °C): A
- stable crystal form ([1]; 1% water in methanol, 60 °C): A
- stable crystal form ([1]; 5% water in methanol, 5 °C): A
- stable crystal form ([1]; 5% water in methanol, 20 °C): A
- stable crystal form ([1]; 5% water in methanol, 35 °C): A
- stable crystal form ([1]; 5% water in methanol, 40 °C): A
- stable crystal form ([1]; 5% water in methanol, 45 °C): A
- stable crystal form ([1]; 5% water in methanol, 60 °C): A
- stable crystal form ([1]; 7.5% water in methanol, 5 °C): H
- stable crystal form ([1]; 7.5% water in methanol, 15 °C): H
- stable crystal form ([1]; 10% water in methanol, 5 °C): H
- stable crystal form ([1]; 10% water in methanol, 15 °C): H
- stable crystal form ([1]; 10% water in methanol, 20 °C): U
- stable crystal form ([1]; 10% water in methanol, 30 °C): U
- stable crystal form ([1]; 10% water in methanol, 35 °C): A
- stable crystal form ([1]; 10% water in methanol, 40 °C): A
- stable crystal form ([1]; 10% water in methanol, 45 °C): A
- stable crystal form ([1]; 10% water in methanol, 60 °C): A
- stable crystal form ([1]; 12.5% water in methanol, 5 °C): H
- stable crystal form ([1]; 15% water in methanol, 5 °C): H
- stable crystal form ([1]; 15% water in methanol, 15 °C): H
- stable crystal form ([1]; 15% water in methanol, 50 °C): H
- stable crystal form ([1]; 15% water in methanol, 60 °C): A
- stable crystal form ([1]; 20% water in methanol, 20 °C): H
- stable crystal form ([1]; 20% water in methanol, 30 °C): H
- stable crystal form ([1]; 20% water in methanol, 35 °C): H
- stable crystal form ([1]; 20% water in methanol, 40 °C): H
- stable crystal form ([1]; 20% water in methanol, 45 °C): H
- stable crystal form ([1]; 20% water in methanol, 60 °C): H
- stable crystal form ([1]; 25% water in methanol, 50 °C): H
- stable crystal form ([1]; 25% water in methanol, 60 °C): H
- stable crystal form ([1]; 35% water in methanol, 60 °C): H

SMILES: Cn1cc(C(=O)Nc2cccc3c2C2CCC3C2=C(Cl)Cl)c(C(F)F)n1 (stereo not drawn) [anhydrous polymorph Form 1, 3-difluoromethyl-1-methyl-1H-pyrazole-4-carboxylic acid (9-dichloromethylene-1,2,3,4-tetrahydro-1,4-methano-naphthalen-5-yl)-amide]
- polymorphic conversion (powder X-ray diffraction) [2]: fully converted to the hydrated form
- size of the crystals (microscopy) [2]: increased substantially

SMILES: Cn1cc(C(=O)Nc2cccc3c2C2CCC3C2=C(Cl)Cl)c(C(F)F)n1 (stereo not drawn) [hydrate of compound (I), 3-difluoromethyl-1-methyl-1H-pyrazole-4-carboxylic acid (9-dichloromethylene-1,2,3,4-tetrahydro-1,4-methano-naphthalen-5-yl)-amide]
- temperature required to dehydrate the hydrate ([1]; normal ambient relative humidities, from phase diagram (FIG. 3)): > 60 °C
